Here are results for 54 molecules from article PMC8315004, “Discovery of Small-Molecule Inhibitors of SARS-CoV-2 Proteins Using a Computational and Experimental Pipeline” (Frontiers in Molecular Biosciences, 2021).

Where a name gives a salt, the structure may show the parent alone.

The first test concerns the target SARS-CoV-2 M^pro (Severe acute respiratory syndrome coronavirus 2, UniProt P0DTD1). Nature of the test: biochemical. On the set-up: inhibition: dose or concentration left out as unconfirmed. The settings on record: 100 µM.
As for `Cc1nc2n(c(=O)c1CCN1CCC(c3noc4cc(F)ccc34)CC1)CCCC2` [Risperidal], the “Normalized Percent FRET inhibition” value was -1.672.

Still in this test, the particulars now being: initial screen, 100 μM of drug, Table S4.
In the case of Ginkgolide C, the “Normalized Percent FRET inhibition” value is recorded as -0.7419%.
Same read-out and setting: in the case of `CO[C@H]1C[C@H](O[C@H]2CC[C@]3(C)[C@H]4CC[C@]5(C)[C@@H](C6=CC(=O)OC6)CC[C@]5(O)[C@@H]4CC[C@]3(O)C2)O[C@H](C)[C@H]1O[C@@H]1O[C@H](CO)[C@@H](O)[C@H](O)[C@H]1O` [Periplocin] it was -1.536%; in that of `CNC(=O)c1cnn(-c2nc(N)c3ncn([C@@H]4O[C@H](CO)[C@@H](O)[C@H]4O)c3n2)c1` [Regadenoson], -0.1877%; in that of `COc1ccc(CN2CCN(C(c3ccc(F)cc3)c3ccc(F)cc3)CC2)c(OC)c1OC.Cl.Cl` [Lomerizine hydrochloride], -0.2765%.
Regarding Maraviroc, the “Normalized Percent FRET inhibition” value is given as -2.69%.
The same measure, in the same setting: for Hyaluronic acid the value was -2.844%; for `CCC(=O)O[C@@H](O[P@](=O)(CCCCc1ccccc1)CC(=O)N1C[C@H](C2CCCCC2)C[C@H]1C(=O)[O-])C(C)C.[Na+]` [Fosinopril sodium], 3.315%.
Same read-out and setting: for `CCc1c2c(nc3ccc(OC(=O)N4CCC(N5CCCCC5)CC4)cc13)-c1cc3c(c(=O)n1C2)COC(=O)[C@]3(O)CC.Cl.O.O.O` [Irinotecan hydrochloride trihydrate] the value was -2.22%.
Turning to `OC[C@H]1O[C@H](O[C@H]2[C@H](O)[C@@H](O)[C@@H](O[C@H]3[C@H](O)[C@@H](O)[C@@H](O[C@H]4[C@H](O)[C@@H](O)C(O)O[C@@H]4CO)O[C@@H]3CO)O[C@@H]2CO)[C@H](O)[C@@H](O)[C@@H]1O` (stereo partly drawn) [MALTOTETRAOSE], the “Normalized Percent FRET inhibition” value was -0.9055%.
The same measure, in the same setting: for `Cc1cc(O)c(C(=O)N[C@@H](C(=O)N[C@@H]2C(=O)N3C(C(=O)O)=C(CSc4nnnn4C)CS[C@H]23)c2ccc(O)cc2)cn1` [Cefpiramide acid] the value was 7.373%; for `Cc1cncc(CN2CCC(=C3c4ccc(Cl)cc4CCc4cccnc43)CC2)c1.O=C(O)/C=C/C(=O)O` [Rupatadine Fumarate], -2.415%.
Same read-out and setting: in the case of `CC(=O)Nc1cccc(-n2c(=O)n(C3CC3)c(=O)c3c(Nc4ccc(I)cc4F)n(C)c(=O)c(C)c32)c1.C[S+](C)[O-]` [Trametinib DMSO solvate] it was 1.516%; in that of Ivermectin, -0.9158%.
On to Eptifibatide acetate, for which the “Normalized Percent FRET inhibition” value stood at 2.056%.
Regarding `CC(C)CN(C[C@@H](O)[C@H](Cc1ccccc1)NC(=O)O[C@H]1CO[C@H]2OCC[C@H]21)S(=O)(=O)c1ccc(N)cc1.CCO` [Darunavir Ethanolate], the “Normalized Percent FRET inhibition” value is recorded as -1.838%.

The same test, now with this note: initial screen, 100 μM of drug, Table S4; 100 µM.
As to `CCN1CCN(C(=O)N[C@@H](C(=O)N[C@@H]2C(=O)N3C(C(=O)O)=C(CSc4nnnn4C)CS[C@H]23)c2ccc(O)cc2)C(=O)C1=O` [Cefoperazone], the “Normalized Percent FRET inhibition” value is listed as -0.3067%.

Still in this test, the particulars now being: initial screen, Table S4; read-out: Normalized Percent FRET inhibition.
The term inhibition denotes the change of the read-out against control, counted positive when it falls. Consider `COc1cc2nccc(Oc3ccc(NC(=O)C4(C(=O)Nc5ccc(F)cc5)CC4)cc3)c2cc1OC` [Cabozantinib Malate], for which the inhibition worked out at 0.386%.
`C=CC(=O)Nc1cccc(Oc2nc(Nc3ccc(N4CCN(C)CC4)cc3)nc3ccsc23)c1` [Olmutinib]: the inhibition was -0.795%.
Consider `COc1ccc(-c2cc(=O)c3c(O)cc(O[C@@H]4O[C@H](CO[C@@H]5O[C@@H](C)[C@H](O)[C@@H](O)[C@H]5O)[C@@H](O)[C@H](O)[C@H]4O)cc3o2)cc1O` [Diosmin], for which the inhibition is -0.378%.
As to `COC(=O)N[C@H](C(=O)N[C@@H](Cc1ccccc1)[C@@H](O)CN(Cc1ccc(-c2ccccn2)cc1)NC(=O)[C@@H](NC(=O)OC)C(C)(C)C)C(C)(C)C` [Atazanavir], the inhibition was -1.97%.
In the case of `CC1=C(C(=O)OCCN(Cc2ccccc2)c2ccccc2)C(c2cccc([N+](=O)[O-])c2)C(P2(=O)OCC(C)(C)CO2)=C(C)N1` (stereo not drawn) [Efonidipine], the inhibition is -1.16%.
The same measure, in the same setting: in the case of `C=CC(=O)N1CCC[C@@H](n2nc(-c3ccc(Oc4ccccc4)cc3)c3c(N)ncnc32)C1` [Ibrutinib] it was -1.91%; in that of `C#C[C@]1(O)CC[C@H]2[C@@H]3CCc4cc(O)ccc4[C@H]3CC[C@@]21C` [Ethynyl estradiol], -3.17%; in that of `Cc1nc(C)c2c(n1)N(Cc1ccc(-c3ccccc3-c3nnn[nH]3)cc1)C(=O)CC2` [Tasosartan], -1.96%.
Still for that read-out and setting: for `COc1ccc2c(O[C@@H]3C[C@H]4C(=O)N[C@]5(C(=O)NS(=O)(=O)C6CC6)C[C@H]5/C=C\CCCCN(C)C(=O)[C@@H]4C3)cc(-c3nc(C(C)C)cs3)nc2c1C` [Simeprevir] the value was 72.9%.
Same read-out and setting: in the case of `Cc1cc(C#N)cc(C)c1Oc1nc(Nc2ccc(C#N)cc2)nc(N)c1Br` [Etravirine] it was -0.895%.
Turning to `Cc1cc(/C=C/C#N)cc(C)c1Nc1ccnc(Nc2ccc(C#N)cc2)n1` [Rilpivirine], the inhibition was found to be 5.87%.
Regarding `CC1(C)CCC(CN2CCN(c3ccc(C(=O)NS(=O)(=O)c4ccc(NCC5CCOCC5)c([N+](=O)[O-])c4)c(Oc4cnc5[nH]ccc5c4)c3)CC2)=C(c2ccc(Cl)cc2)C1` [ABT199], the inhibition worked out at 6.27%.
On to `Cc1c(O)cccc1C(=O)N[C@@H](CSc1ccccc1)[C@H](O)CN1C[C@H]2CCCC[C@H]2C[C@H]1C(=O)NC(C)(C)C` [Nelfinavir Mesylate], for which the inhibition was determined as 30.8%.
On the same count and under the same terms, for `COc1cc2nc(N3CCN(C(=O)C4COc5ccccc5O4)CC3)nc(N)c2cc1OC` (stereo not drawn) [Doxazosin mesylate] the value was 0.919%; for `Cc1ccc(Nc2nccc(N(C)c3ccc4c(C)n(C)nc4c3)n2)cc1S(N)(=O)=O` [Pazopanib], -0.955%.
In the case of `CC#CCn1c(N2CCC[C@@H](N)C2)nc2c1c(=O)n(Cc1nc(C)c3ccccc3n1)c(=O)n2C` [Linagliptin], the inhibition amounted to 8.28%.
On the same count and under the same terms, for `CC1(C)[C@@H](O)CC[C@]2(C)[C@H]3C(=O)C=C4[C@@H]5C[C@@](C)(C(=O)O)CC[C@]5(C)CC[C@@]4(C)[C@]3(C)CC[C@@H]12` [Enoxolone] the value was 4.01%.
On to `Cc1cccc(C)c1OCC(=O)N[C@@H](Cc1ccccc1)[C@@H](O)C[C@H](Cc1ccccc1)NC(=O)[C@H](C(C)C)N1CCCNC1=O` [Lopinavir], for which the inhibition is 18.2%.
Still for that read-out and setting: for `CCOc1nc2cccc(C(=O)OCc3oc(=O)oc3C)c2n1Cc1ccc(-c2ccccc2-c2noc(=O)[nH]2)cc1` [Azilsartan Medoxomil] the value was -1.99%.
The same measure, in the same setting: for `C[C@@H](c1nc(-c2ccc(C#N)cc2)cs1)[C@](O)(Cn1cncn1)c1cc(F)ccc1F` [Isavuconazole] the value was -0.886%; for `CC1=NN(c2ccc(C)c(C)c2)C(=O)/C1=N\Nc1cccc(-c2cccc(C(=O)O)c2)c1O` [Eltrombopag Olamine], 23.7%.
On the same count and under the same terms, in the case of `COc1cc(N2CCC(N3CCN(C)CC3)CC2)ccc1Nc1ncc(Cl)c(Nc2ccccc2P(C)(C)=O)n1` [Brigatinib] it was 5.97%; in that of `C[C@@H]1O[C@@H](O[C@H]2C[C@@H](O)[C@]3(CO)[C@H]4[C@H](O)C[C@]5(C)[C@@H](C6=CC(=O)OC6)CC[C@]5(O)[C@@H]4CC[C@]3(O)C2)[C@H](O)[C@H](O)[C@H]1O` [Ouabain octahydrate], -0.948%; in that of `CCCc1nc(C(C)(C)O)c(C(=O)OCc2oc(=O)oc2C)n1Cc1ccc(-c2ccccc2-c2nnn[nH]2)cc1` [Olmesartan Medoxomil], 2.83%.
For the molecule `OCCOCCN1CCN(C(c2ccccc2)c2ccc(Cl)cc2)CC1` (stereo not drawn) [Hydroxyzine Pamoate], the inhibition stood at 12.9%.
Still for that read-out and setting: in the case of `C[C@@H](O[C@H]1OCCN(Cc2n[nH]c(=O)[nH]2)[C@H]1c1ccc(F)cc1)c1cc(C(F)(F)F)cc(C(F)(F)F)c1` [Aprepitant] it was 3.37%.
With `CC(C)C(=O)OCC(=O)[C@@]12O[C@H](C3CCCCC3)O[C@@H]1C[C@H]1[C@@H]3CCC4=CC(=O)C=C[C@]4(C)[C@H]3[C@@H](O)C[C@@]12C` [Ciclesonide], the inhibition is -0.393%.
On the same count and under the same terms, in the case of `C[C@H]1O[C@@H](O[C@H]2[C@@H](O)C[C@H](O[C@H]3[C@@H](O)C[C@H](O[C@H]4CC[C@@]5(C)[C@H](CC[C@@H]6[C@@H]5CC[C@]5(C)[C@@H](C7=CC(=O)OC7)CC[C@]65O)C4)O[C@@H]3C)O[C@@H]2C)C[C@H](O)[C@@H]1O` [Digitoxin] it was 0.197%.
For `COc1cc(C(=O)NS(=O)(=O)c2ccccc2C)ccc1Cc1cn(C)c2ccc(NC(=O)OC3CCCC3)cc12` [Zafirlukast], the inhibition was 3.83%.
In the case of `CO[C@@H]1[C@@H](OC(N)=O)[C@@H](O)[C@H](Oc2ccc3c(O)c(NC(=O)c4ccc(O)c(CC=C(C)C)c4)c(=O)oc3c2C)OC1(C)C` [Novobiocin Sodium], the inhibition is -0.228%.
Same read-out and setting: for `O=C1[C@H](CC[C@H](O)c2ccc(F)cc2)[C@@H](c2ccc(O)cc2)N1c1ccc(F)cc1` [Ezetimibe] the value was -1.34%; for `CO[C@@]1(NC(=O)C2SC(=C(C(N)=O)C(=O)O)S2)C(=O)N2C(C(=O)O)=C(CSc3nnnn3C)CS[C@@H]21` (stereo partly drawn) [Cefotetan], 2.14%.
Still for that read-out and setting: in the case of `C#C[C@]1(O)CC[C@H]2[C@@H]3CCc4cc(OC)ccc4[C@H]3CC[C@@]21C` [Mestranol] it was -1.1%; in that of `CC(C)(C)NC(=O)[C@@H]1C[C@@H]2CCCC[C@@H]2CN1C[C@@H](O)[C@H](Cc1ccccc1)NC(=O)[C@H](CC(N)=O)NC(=O)c1ccc2ccccc2n1` [Saquinavir], -1.34%.
Regarding `CCOC(=O)N[C@@H]1CC[C@@H]2[C@@H](C1)C[C@H]1C(=O)O[C@H](C)[C@H]1[C@H]2/C=C/c1ccc(-c2cccc(F)c2)cn1` [Vorapaxar], the inhibition is -0.416%.
On the same count and under the same terms, in the case of `C=CC[N+]1([C@H]2C[C@H]3[C@@H]4CC[C@H]5C[C@H](O)[C@@H](N6CCOCC6)C[C@]5(C)[C@H]4CC[C@]3(C)[C@H]2OC(C)=O)CCCC1` [Rocuronium bromide] it was 11.3%.

The test is the same for the next values; noted with them: read-out: Normalized Percent FRET inhibition.
For the molecule `CN1c2c(nc(N)[nH]c2=O)NCC1CNc1ccc(C(=O)N[C@@H](CCC(=O)O)C(=O)O)cc1` (stereo partly drawn) [Calcium N5-methyltetrahydrofolate], the inhibition at 100 µM was determined as 3.74%.
